Laboratory results: patent US11285156B2, “Substituted piperazines as KRAS G12C inhibitors” (Amgen Inc., priority 2018, dated 2022)
Read-outs that look alike come from different tables or passages of the source.

Assays:
[1] = test system: Phosphorylation of ERK1/2 in MIA PaCa-2 cells; assay: Phospho-ERK1/2 MSD assay in MIA PaCa-2 cells; assay type: cell-based; details: read-out: p-ERK IC50 (2 h, MiaPaCa-2; μM), 2 h compound treatment, MIA PaCa-2 cells, EGF stimulated
Outline: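 Phospho-ERK1/2 measured by MSD electrochemiluminescence kit in RIPA lysates of MIA PaCa-2 cells. Cells were treated with compound titrations for 2 or 4 h at 37 °C, 5% CO2, followed by a 10 min pulse of 10 ng/mL EGF.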

[2] = target: GDP-bound KRAS protein (aa 1-169), containing both G12C and C118A amino acid substitutions (Homo sapiens (Human), UniProt P01116, C118A/G12C); assay: Coupled nucleotide exchange assay (SOS-mediated nucleotide exchange, AlphaScreen); assay type: biochemical; details: 5 min compound pre-incubation; for IC50: read-out: Coupled exchange IC50 (5 min; μM)
GDP-bound KRAS protein (aa 1-169), containing both G12C and C118A amino acid substitutions, sequence (P01116 other isoform, or with tags, fused parts or gaps G12C/C118A): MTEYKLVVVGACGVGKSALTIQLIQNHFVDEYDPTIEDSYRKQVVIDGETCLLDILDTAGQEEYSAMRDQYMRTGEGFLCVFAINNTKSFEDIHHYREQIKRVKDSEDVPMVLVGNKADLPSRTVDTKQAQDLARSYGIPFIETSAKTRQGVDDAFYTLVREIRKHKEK

[3] = test system: Phosphorylation of ERK1/2 in A549 cells; assay: Phospho-ERK1/2 MSD assay in A549 cells; assay type: cell-based; details: read-out: p-ERK IC50 (2 h, A549; μM), 2 h compound treatment, A549 cells, EGF stimulated
Outline: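 Dose-response treatment lasted 2 or 4 h in RPMI 1640/10% FBS at 37 °C. EGF-stimulated (10 ng/mL, 10 min) ERK1/2 phosphorylation was then quantified in cell lysates with a Meso Scale Discovery phospho-ERK1/2 assay.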

SMILES	IC50 ([1]; Homo sapiens, MIA PaCa-2, 2 h) [µM]	Coupled exchange IC50 (5 min; μM) [2] [µM]	IC50 ([3]; Homo sapiens, A549, 2 h) [µM]	IC50 [1] [µM]	IC50 [2] [µM]	IC50 [3] [µM]
[2H]C1([2H])CN(c2nc(=O)n(-c3c(C)ccnc3C(C)C)c3nc(-c4c(O)cccc4F)c(F)cc23)CC([2H])([2H])N1C(=O)C=C (atropisomer, axis not shown; (M)) [Example 72-20, (M)-6-Fluoro-7-(2-fluoro-6-hydroxy-phenyl)-1-(2-isopropyl-4-methyl-3-pyridyl)-4-(3,3,5,5-tetradeuterio-4-prop-2-enoyl-piperazin-1-yl)pyrido[2,3-d]pyrimidin-2-one]	0.223	0.382	> 7.5			
[2H]C1([2H])CN(C(=O)C=C)CC([2H])([2H])N1c1nc(=O)n(-c2c(C)ccnc2C(C)C)c2nc(-c3c(O)cccc3F)c(F)cc12 (atropisomer, axis not shown; (M)) [Example 72-21, (M)-6-Fluoro-7-(2-fluoro-6-hydroxy-phenyl)-1-(2-isopropyl-4-methyl-3-pyridyl)-4-(2,2,6,6-tetradeuterio-4-prop-2-enoyl-piperazin-1-yl)pyrido[2,3-d]pyrimidin-2-one]	0.306	0.468	> 7.5			
C=CC(=O)N1C[C@H](C)N(c2nc(=O)n(-c3c(C)ccnc3C(C)C)c3nc(-c4ccccc4C(C)C)c(Cl)cc23)C[C@H]1C (atropisomer, axis not shown; (M)) [Example 92-1, (M)-6-Chloro-4-[(2S,5R)-2,5-dimethyl-4-prop-2-enoyl-piperazin-1-yl]-1-(2-isopropyl-4-methyl-3-pyridyl)-7-(2-isopropylphenyl)pyrido[2,3-d]pyrimidin-2-one]				0.014	0.016	> 7.5
C=CC(=O)N1CCN(c2nc(=O)n(-c3c(C)ccnc3C(C)C)c3nc(-c4c(N)cccc4F)c(Cl)cc23)C[C@H]1C (atropisomer, axis not shown; (M)) [Example 92-2, (M)-7-(2-Amino-6-fluoro-phenyl)-6-chloro-1-(2-isopropyl-4-methyl-3-pyridyl)-4-[(3R)-3-methyl-4-prop-2-enoyl-piperazin-1-yl]pyrido[2,3-d]pyrimidin-2-one]				0.035	0.024	> 7.5
C=CC(=O)N1C[C@H](C)N(c2nc(=O)n(-c3c(C)ccnc3C(C)C)c3nc(-c4ccsc4C)c(Cl)cc23)C[C@H]1C (atropisomer, axis not shown; (M)) [Example 92-3, (M)-6-Chloro-4-[(2S,5R)-2,5-dimethyl-4-prop-2-enoyl-piperazin-1-yl]-1-(2-isopropyl-4-methyl-3-pyridyl)-7-(2-methyl-3-thienyl)pyrido[2,3-d]pyrimidin-2-one]	0.094		> 7.5		0.095	
C=CC(=O)N1C[C@H](C)N(c2nc(=O)n(-c3c(C)ccnc3C(C)C)c3nc(-c4ccccc4C4CC4)c(Cl)cc23)C[C@H]1C (atropisomer, axis not shown; (M)) [Example 92-4, (M)-6-Chloro-7-(2-cyclopropylphenyl)-4-[(2S,5R)-2,5-dimethyl-4-prop-2-enoyl-piperazin-1-yl]-1-(2-isopropyl-4-methyl-3-pyridyl)pyrido [2,3-d]pyrimidin-2-one]	0.042		> 7.5		0.044	
C=CC(=O)N1C[C@H](C)N(c2nc(=O)n(-c3c(C)ccnc3C(C)C)c3nc(C4=CCCCCC4)c(Cl)cc23)C[C@H]1C (atropisomer, axis not shown; (M)) [Example 92-10, (M)-6-Chloro-7-(cyclohepten-1-yl)-4-[(2S,5R)-2,5-dimethyl-4-prop-2-enoyl-piperazin-1-yl]-1-(2-isopropyl-4-methyl-3-pyridyl)pyrido [2,3-d]pyrimidin-2-one]	0.367		> 7.5		0.059	
C=CC(=O)N1C[C@H](C)N(c2nc(=O)n(-c3c(C)ccnc3C(C)C)c3nc(-c4cccc5cc[nH]c45)c(Cl)cc23)C[C@H]1C (atropisomer, axis not shown; (M)) [Example 92-11, (M)-6-Chloro-4-[(2S,5R)-2,5-dimethyl-4-prop-2-enoyl-piperazin-1-yl]-7-(lH-indol-7-yl)-1-(2-isopropyl-4-methyl-3-pyridyl)pyrido [2,3-d]pyrimidin-2-one]	0.262		> 7.5		0.086	
C=CC(=O)N1C[C@H](C)N(c2nc(=O)n(-c3c(C)ccnc3C(C)C)c3nc(-c4ccccc4N)c(Cl)cc23)C[C@H]1C (atropisomer, axis not shown; (M)) [Example 92-12, (M)-7-(2-Aminophenyl)-6-chloro-4-[(2S,5R)-2,5-dimethyl-4-prop-2-enoyl-piperazin-1-yl]-1-(2-isopropyl-4-methyl-3-pyridyl)pyrido[2,3-d]pyrimidin-2-one]	0.022		> 7.5		0.019	
C=CC(=O)N1C[C@H](C)N(c2nc(=O)n(-c3c(C)ccnc3C(C)C)c3nc(-c4cccnc4N)c(Cl)cc23)C[C@H]1C (atropisomer, axis not shown; (M)) [Example 92-13, (M)-7-(2-Amino-3-pyridyl)-6-chloro-4-[(2S,5R)-2,5-dimethyl-4-prop-2-enoyl-piperazin-1-yl]-1-(2-isopropyl-4-methyl-3-pyridyl)pyrido [2,3-d]pyrimidin-2-one]	0.251		> 7.5		0.201	
C=CC(=O)N1C[C@H](C)N(c2nc(=O)n(-c3c(C)ccnc3C(C)C)c3nc(-c4ccccc4OC(F)F)c(Cl)cc23)C[C@H]1C (atropisomer, axis not shown; (M)) [Example 92-14, (M)-6-Chloro-7-[2-(difluoromethoxy)phenyl]-4-[(2S,5R)-2,5-dimethyl-4-prop-2-enoyl-piperazin-1-yl]-1-(2-isopropyl-4-methyl-3-pyridyl)pyrido [2,3-d]pyrimidin-2-one]	0.074		> 7.5		0.121	
C=CC(=O)N1C[C@H](C)N(c2nc(=O)n(-c3c(C)ccnc3C(C)C)c3nc(-c4c(C)ccc5cn[nH]c45)c(Cl)cc23)C[C@H]1C (atropisomer, axis not shown; (M)) [Example 92-15, (M)-6-Chloro-4-[(2S,5R)-2,5-dimethyl-4-prop-2-enoyl-piperazin-1-yl]-1-(2-isopropyl-4-methyl-3-pyridyl)-7-(6-methyl-1H-indazol-7-yl)pyrido[2,3-d]pyrimidin-2-one]	0.125		> 7.5		0.094	
C=CC(=O)N1C[C@H](C)N(c2nc(=O)n(-c3c(C)ccnc3C(C)C)c3nc(-c4ccccc4C(F)F)c(Cl)cc23)C[C@H]1C (atropisomer, axis not shown; (M)) [Example 92-16, (M)-6-Chloro-7-[2-(difluoromethyl)phenyl]-4-[(2S,5R)-2,5-dimethyl-4-prop-2-enoyl-piperazin-1-yl]-1-(2-isopropyl-4-methyl-3-pyridyl)pyrido [2,3-d]pyrimidin-2-one]	0.015		> 7.5		0.043	
C=CC(=O)N1C[C@H](C)N(c2nc(=O)n(-c3c(C)ccnc3C(C)C)c3nc(-c4cccc(F)c4N)c(Cl)cc23)C[C@H]1C (atropisomer, axis not shown; (M)) [Example 92-17, (M)-7-(2-Amino-3-fluoro-phenyl)-6-chloro-4-[(2S,5R)-2,5-dimethyl-4-prop-2-enoyl-piperazin-1-yl]-1-(2-isopropyl-4-methyl-3-pyridyl)pyrido[2,3-d]pyrimidin-2-one]	0.018		> 7.5		0.042	
